Reference: patent US20060069132A1, “Azolecarboxamide herbicides” (priority 2004, published 2006)

Columns and labels:
[1] = system: barnyardgrass; test: Test B pre-/postemergence herbicide test; type: in vivo, Echinochloa crus-galli; conditions: for Barnyardgrass plant response rating: postemergence, scale 0 (no effect) to 100 (complete control)
In short: (§1)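 Flooded paddy rice and barnyardgrass were treated at the 2-leaf stage; upland plantings received compound either on sown seed or on 1- to 4-leaf seedlings. All were kept 13–15 days in a greenhouse and scored visually, 0–100, relative to untreated plants.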

[2] = system: Surinam grass; test: Test B pre-/postemergence herbicide test; type: in vivo, Urochloa decumbens; conditions: for Surinam Grass plant response rating: postemergence, scale 0 (no effect) to 100 (complete control)
In short: (§2)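 Response was scored visually 13 to 15 days after treatment against untreated greenhouse controls, 0 meaning no effect and 100 complete control. Formulations (solvent mixture plus surfactant) went onto soil after planting, onto foliage of 1- to 4-leaf plants, and onto 2-leaf plants in a flooded paddy set including rice and barnyardgrass.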

[3] = system: cocklebur; test: Test B pre-/postemergence herbicide test; type: in vivo, Xanthium strumarium; conditions: for Cocklebur plant response rating: postemergence, scale 0 (no effect) to 100 (complete control)
In short: as §1

[4] = system: corn; test: Test B pre-/postemergence herbicide test; type: in vivo, Zea mays; conditions: for Corn plant response rating: postemergence, scale 0 (no effect) to 100 (complete control)
In short: as §2

[5] = system: large crabgrass; test: Test B pre-/postemergence herbicide test; type: in vivo, Digitaria sanguinalis; conditions: for Crabgrass, Large plant response rating: postemergence, scale 0 (no effect) to 100 (complete control)
In short: as §2

[6] = system: giant foxtail; test: Test B pre-/postemergence herbicide test; type: in vivo, Setaria faberi; conditions: for Foxtail, Giant plant response rating: postemergence, scale 0 (no effect) to 100 (complete control)
In short: as §2

[7] = system: lambsquarters; test: Test B pre-/postemergence herbicide test; type: in vivo, Chenopodium album; conditions: for Lambsquarters plant response rating: postemergence, scale 0 (no effect) to 100 (complete control)
In short: as §2

[8] = system: morningglory; test: Test B pre-/postemergence herbicide test; type: in vivo, Ipomoea coccinea; conditions: for Morningglory plant response rating: postemergence, scale 0 (no effect) to 100 (complete control)
In short: as §1

[9] = system: pigweed; test: Test B pre-/postemergence herbicide test; type: in vivo, Amaranthus retroflexus; conditions: for Pigweed plant response rating: postemergence, scale 0 (no effect) to 100 (complete control)
In short: as §2

[10] = system: rice; test: Test B pre-/postemergence herbicide test; type: in vivo, Oryza sativa; conditions: 0 = no effect, 100 = complete control, preemergence
In short: as §2

[11] = system: velvetleaf; test: Test B pre-/postemergence herbicide test; type: in vivo, Abutilon theophrasti; conditions: for Velvetleaf plant response rating: postemergence, scale 0 (no effect) to 100 (complete control)
In short: as §2

[12] = system: blackgrass; test: Test B postemergence herbicide test; type: in vivo, Alopecurus myosuroides; conditions: postemergence, visual rating, scale 0 (no effect) to 100 (complete control)
In short: (§3)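 After treating 2-leaf paddy plants or 2–18 cm postemergence plants (1 to 4 leaves) with formulated chemical, researchers kept them in a greenhouse for 13–15 days. Effects were judged visually versus controls: 0 indicates none, 100 total control.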

[13] = system: wheat; test: Test B postemergence herbicide test; type: in vivo, Triticum aestivum; parameters: key to Wheat plant response rating: 0 = no effect, 100 = complete control; conditions: postemergence, visual rating, scale 0 (no effect) to 100 (complete control)
In short: (§4)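 Visual ratings, 0 (no effect) to 100 (complete control), made versus controls after 13–15 d greenhouse. Paddy plants treated at 2-leaf stage; postemergence plants at 1- to 4-leaf stage, 2–18 cm tall.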

[14] = system: wild oat; test: Test B postemergence herbicide test; type: in vivo, Avena fatua; conditions: postemergence, visual rating, scale 0 (no effect) to 100 (complete control)
In short: as §4

[15] = system: rice; test: Test B flooded paddy test; type: in vivo, Oryza sativa; conditions: 1000 g ai/ha, visual rating, scale 0 to 100 (0 no effect, 100 complete control), 13 to 15 days
In short: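 Postemergence plants were sprayed with formulated test chemicals at 2 to 18 cm height (1- to 4-leaf stage); paddy species were grown to the 2-leaf stage. After 13 to 15 days in a greenhouse, injury was rated visually against untreated controls on a 0–100 scale (0 = no effect, 100 = complete control).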

[16] = system: small flower umbrella sedge; test: Test B flooded paddy test; type: in vivo, Cyperus difformis; conditions: 1000 g ai/ha, visual rating, scale 0 to 100 (0 no effect, 100 complete control), 13 to 15 days
In short: as §3

[17] = system: ducksalad; test: Test B flooded paddy test; type: in vivo, Heteranthera limosa; conditions: 1000 g ai/ha, visual rating, scale 0 to 100 (0 no effect, 100 complete control), 13 to 15 days
In short: as §3

[18] = system: barnyardgrass; test: Test B flooded paddy test; type: in vivo, Echinochloa crus-galli; conditions: 1000 g ai/ha, visual rating, scale 0 to 100 (0 no effect, 100 complete control), 13 to 15 days
In short: as §3

[19] = system: rice; test: Test C flooded paddy test; type: in vivo, Oryza sativa
In short: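 Postemergence sprays applied to plants 2 to 18 cm tall (1- to 4-leaf stage); paddy species grown to 2-leaf stage under flooding. After 12 to 14 days in greenhouse, visual rating versus untreated controls on 0–100 scale (0 no effect, 100 complete control).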

[20] = system: smallflower umbrella sedge; test: Test C flooded paddy test; type: in vivo, Cyperus difformis
[21] = system: ducksalad; test: Test C flooded paddy test; type: in vivo, Heteranthera limosa
[22] = system: barnyardgrass; test: Test C flooded paddy test; type: in vivo, Echinochloa crus-galli
In short: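 Injury scored visually against controls on a 0 (no effect) to 100 (complete control) scale, 12 to 14 days after treatment in greenhouse. Flooded paddy plants treated at 2-leaf stage; postemergence plants at 1- to 4-leaf stage, 2 to 18 cm tall.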

[23] = 125 g ai/ha, 0 = no effect, 100 = complete control, preemergence
[24] = 500 g ai/ha, visual rating, 0 = no effect, 100 = complete control, preemergence
[25] = 62 g ai/ha, scale 0 to 100 (0 no effect, 100 complete control)
[26] = 125 g ai/ha, scale 0 to 100 (0 no effect, 100 complete control)
[27] = 250 g ai/ha, scale of 0 to 100, 0 is no effect, 100 is complete control
[28] = 500 g ai/ha, visual rating after 12 to 14 days, scale 0 to 100 (0 no effect, 100 complete control)

Question: For `CCc1nc(C(C)(C)C)sc1C(=O)Nc1cccc(C(=O)N(C)CC)c1` [Compound 229], which “Barnyardgrass plant response rating (0 to 100 scale)” value [1, 23] is on record?
Answer: 50

Question: And the “Plant response rating, Barnyardgrass” value [1, 24]?
Answer: 90

Question: What about the “Barnyardgrass plant response rating” value ([1]; 125 g ai/ha, visual rating) of the same compound?
Answer: 20

Question: And the “Barnyardgrass plant response rating” value ([1]; 500 g ai/ha, visual rating)?
Answer: 50

Question: And the “Surinam Grass plant response rating (0 to 100 scale)” value [2, 23]?
Answer: 40

Question: And the “Plant response rating, Surinam Grass” value [2, 24]?
Answer: 80

Question: What about the “Surinam Grass plant response rating” value ([2]; 125 g ai/ha, visual rating) of the same compound?
Answer: 10

Question: What about the “Surinam Grass plant response rating” value ([2]; 500 g ai/ha, visual rating) of the same compound?
Answer: 20

Question: And the “Cocklebur plant response rating (0 to 100 scale)” value [3, 23]?
Answer: 0

Question: What about the “Plant response rating, Cocklebur” value [3, 24] of the same compound?
Answer: 40

Question: What about the “Cocklebur plant response rating” value ([3]; 125 g ai/ha, visual rating) of the same compound?
Answer: 20

Question: What about the “Cocklebur plant response rating” value ([3]; 500 g ai/ha, visual rating) of the same compound?
Answer: 70

Question: What about the “Corn plant response rating (0 to 100 scale)” value [4, 23] of the same compound?
Answer: 10

Question: What about the “Plant response rating, Corn” value [4, 24] of the same compound?
Answer: 40

Question: What about the “Corn plant response rating” value ([4]; 125 g ai/ha, visual rating) of the same compound?
Answer: 10

Question: What about the “Corn plant response rating” value ([4]; 500 g ai/ha, visual rating) of the same compound?
Answer: 20

Question: And the “Crabgrass, Large plant response rating (0 to 100 scale)” value [5, 23]?
Answer: 40

Question: What about the “Plant response rating, Crabgrass, Large” value [5, 24] of the same compound?
Answer: 100

Question: And the “Crabgrass, Large plant response rating” value ([5]; 125 g ai/ha, visual rating)?
Answer: 10

Question: And the “Crabgrass, Large plant response rating” value ([5]; 500 g ai/ha, visual rating)?
Answer: 20

Question: What about the “Foxtail, Giant plant response rating (0 to 100 scale)” value [6, 23] of the same compound?
Answer: 50

Question: What about the “Plant response rating, Foxtail, Giant” value [6, 24] of the same compound?
Answer: 80

Question: And the “Foxtail, Giant plant response rating” value ([6]; 125 g ai/ha, visual rating)?
Answer: 30

Question: And the “Foxtail, Giant plant response rating” value ([6]; 500 g ai/ha, visual rating)?
Answer: 50

Question: And the “Lambsquarters plant response rating (0 to 100 scale)” value [7, 23]?
Answer: 90

Question: And the “Plant response rating, Lambsquarters” value [7, 24]?
Answer: 100

Question: What about the “Lambsquarters plant response rating” value ([7]; 125 g ai/ha, visual rating) of the same compound?
Answer: 70

Question: What about the “Lambsquarters plant response rating” value ([7]; 500 g ai/ha, visual rating) of the same compound?
Answer: 80

Question: What about the “Morningglory plant response rating (0 to 100 scale)” value [8, 23] of the same compound?
Answer: 10

Question: What about the “Plant response rating, Morningglory” value [8, 24] of the same compound?
Answer: 20

Question: And the “Morningglory plant response rating” value ([8]; 125 g ai/ha, visual rating)?
Answer: 10

Question: What about the “Morningglory plant response rating” value ([8]; 500 g ai/ha, visual rating) of the same compound?
Answer: 70

Question: And the “Pigweed plant response rating (0 to 100 scale)” value [9, 23]?
Answer: 100

Question: What about the “Plant response rating, Pigweed” value [9, 24] of the same compound?
Answer: 100

Question: What about the “Pigweed plant response rating” value ([9]; 125 g ai/ha, visual rating) of the same compound?
Answer: 60

Question: And the “Pigweed plant response rating” value ([9]; 500 g ai/ha, visual rating)?
Answer: 80

Question: What about the “Rice plant response rating (0 to 100 scale)” value ([10]; 125 g ai/ha) of the same compound?
Answer: 30

Question: And the “Plant response rating, Rice” value ([10]; 500 g ai/ha, visual rating)?
Answer: 70

Question: And the “Velvetleaf plant response rating (0 to 100 scale)” value [11, 23]?
Answer: 40

Question: What about the “Plant response rating, Velvetleaf” value [11, 24] of the same compound?
Answer: 100

Question: And the “Velvetleaf plant response rating” value ([11]; 125 g ai/ha, visual rating)?
Answer: 60

Question: What about the “Velvetleaf plant response rating” value ([11]; 500 g ai/ha, visual rating) of the same compound?
Answer: 70

Question: And the “Blackgrass plant response rating” value ([12]; 125 g ai/ha)?
Answer: 30

Question: And the “Blackgrass plant response rating” value ([12]; 500 g ai/ha)?
Answer: 30

Question: And the “Wheat plant response rating” value ([13]; 125 g ai/ha)?
Answer: 30

Question: What about the “Wheat plant response rating” value ([13]; 500 g ai/ha) of the same compound?
Answer: 40

Question: And the “Oat, Wild plant response rating” value ([14]; 125 g ai/ha)?
Answer: 30

Question: And the “Oat, Wild plant response rating” value ([14]; 500 g ai/ha)?
Answer: 50

Question: And the “Rice plant response rating” value [15]?
Answer: 90

Question: What about the “Sedge, Umbrella plant response rating” value [16] of the same compound?
Answer: 80

Question: And the “Ducksalad plant response rating” value [17]?
Answer: 90

Question: What about the “Barnyardgrass plant response rating” value [18] of the same compound?
Answer: 90

Question: What about the “Rice plant response rating” value [19, 25] of the same compound?
Answer: 35

Question: And the “Rice plant response rating” value [19, 26]?
Answer: 35

Question: What about the “Rice plant response rating” value [19, 27] of the same compound?
Answer: 80

Question: And the “Plant response rating, Rice” value [19, 28]?
Answer: 90

Question: What about the “Sedge, Umbrella plant response rating” value [20, 25] of the same compound?
Answer: 30

Question: What about the “Sedge, Umbrella plant response rating” value [20, 26] of the same compound?
Answer: 40

Question: What about the “Sedge, Umbrella plant response rating” value [20, 27] of the same compound?
Answer: 80

Question: What about the “Plant response rating, Sedge, Umbrella” value [20, 28] of the same compound?
Answer: 80

Question: And the “Ducksalad plant response rating” value [21, 25]?
Answer: 0

Question: What about the “Ducksalad plant response rating” value [21, 26] of the same compound?
Answer: 0

Question: And the “Ducksalad plant response rating” value [21, 27]?
Answer: 80

Question: And the “Plant response rating, Ducksalad” value [21, 28]?
Answer: 85

Question: And the “Barnyardgrass plant response rating” value [22, 25]?
Answer: 40

Question: And the “Barnyardgrass plant response rating” value [22, 26]?
Answer: 45

Question: And the “Barnyardgrass plant response rating” value [22, 27]?
Answer: 75

Question: And the “Plant response rating, Barnyardgrass” value [22, 28]?
Answer: 80
